Data taken from patent US11724999B2, “Inhibitors of RAS-effector protein interactions” (Oxford University Innovation Limited, priority 2018, dated 2023).

What was measured:
[1] = tested on: DLD1 cells (ATCC CCL-221); experiment: Cell viability assay (CellTiter-Glo), DLD1 cells; type: cell-based; settings: Homo sapiens, DLD-1 cells, 48 h incubation, second value of the cell, read-out: Cell Viability (μM) DLD-1 (concentration that decreases cell viability by 50%)
Protocol: (§1) Cells (A549 ATCC CCL-185) are cultured in Dulbecco's Modified Eagle's Medium plus 10% foetal calf serum and 2 mM L-glutamine at 37° C., 5% CO2. Cells are plated onto white clear bottom 96-well plates (5000 cells/well in 200 μl media) and left to adhere overnight at 37° C., 5% CO2. Next day, test compound (1 μl at 200× concentration in 100% DMSO) is added to give final test compound concentration 1× in 0.5% DMSO. After 48 h of incubation at 37° C., 5% CO2, 20 μl CellTiter-Glo reagent (Promega G7572) is added into each well. Plates are incubated at room temperature with shaking for 30 min and then luminescence is read using a PheraStar plate reader. The concentration of compounds that decrease cell viability by 50% is calculated from dose response curves generated using Dotmatics data analysis software.
In the DLD1 cell assay, cells (ATCC CCL-221) are cultured in RPMI-1640 medium plus 10% foetal calf serum and 2 mM L-glutamine at 37° C., 5% CO2.

[2] = target: T1, GST-human KRas166 (G12V) GPPNHP (Homo sapiens, UniProt P01116, G12V); experiment: KRas small-molecule screening by SPR (BIACORE T200); type: binding; settings: compound at final concentration of 100 uM; immobilised GST-KRAS166 (G12V) GPPNHP, GST reference channel
T1 construct: made in house; host or cells: E. coli C41(DE3)
Protocol: For SPR assays pGEX-KRAS(G12V) plasmid was transformed into E. coli C41(DE3). Bacterial cells were cultured at 37° C. to an OD600 of 0.6 and induced with IPTG (final 0.1 mM) at 18° C. overnight. The GST fusion proteins were extracted from bacteria pellets after cell disruption in 140 mM NaCl, 2.7 mM KCl, […], 1.8 mM KH2PO4, 1 mM EDTA, 2 mM MgCl2 pH 7.4 and purified by glutathione-sepharose column chromatography (GE Healthcare), eluting with 50 mM Tris-HCl pH8.0, 10 mM reduced glutathione, 1 mM DTT, 2 mM MgC2. The eluted proteins were dialysed against 50 mM Tris-HCl pH8.0, 1 mM DTT, 2 mM MgCl2 and concentrated to 10 mg/ml using a Biomax-30 […]-15 centrifugal filter device (Millipore). Purified KRAS protein was loaded with GPPNHP as described elsewhere (Pacold et al., 2000). Loaded protein was then purified by gel filtration on a HiLoad Superdex-75 HR column (GE Healthcare) in 1×PBS pH7.4, 5 mM MgCl2 and concentrated for storage.
To a previously immobilized CM5 chip (GE Healthcare BR-1005-30) with anti GST antibody via amine coupling method, GST in channel 1 and GST-human KRas166 (G12V) GPPNHP in channel 2 were immobilised. GST was immobilised between 2,000 and 5,000 Response units. KRAS166 (G12V) was immobilized between 10,000 to 15,000 Response Units.
In a 96 well plate, compounds were diluted in […], 5 mM MgCl2 and 5% DMSO Buffer to a final concentration of 100 uM. DCAI was used as positive control. Experiment also included a solvent correction curve for 5% DMSO. Screening and evaluation of the protein immobilization and the compounds screening was done accordingly to the BIACORE T200 control and evaluation software.
Protein immobilisation: 10,000 RU; average fragment 300 Da in size. Rmax=(MWA/MWL)×RL×SM MWA is the molecular weight of the analyte in Da MWL is the molecular weight of the ligand in Da RL is the immobilization level in RU SM is the molar stoichiometry (assume 1:1) Rmax=300/47,500×10,000×1 Rmax=63 RU. Cell Viability Assay protocols

[3] = tested on: H358 cells (ATCC CRL-5807); experiment: Cell viability assay (CellTiter-Glo), H358 cells; type: cell-based; settings: Homo sapiens, NCI-H358, 48 h incubation, first value of the cell, read-out: Cell Viability (μM) H358 (concentration that decreases cell viability by 50%)
Protocol: as §1
In the H358 cell assay, cells (ATCC CRL-5807) are cultured in RPM-1640 medium plus 10% foetal calf serum and 2 mM L-glutamine at 37° C., 5% CO2.

SMILES | IC50 [1] | SPR Response Units [2] | IC50 [3]
CN1CCC(C(=O)NC[C@@H]2COc3ccc(OCc4ccc(Cl)cc4)cc3O2)CC1 [Example 18, 1-Methyl-piperidine-4-carboxylic acid [(R)-7-(4-chloro-benzyloxy)-2,3-dihydro-benzo[1,4]dioxin-2-ylmethyl]-amide] | 5.4 µM | 61 Response Units | 10 µM
CN1CCC(CNC[C@@H]2COc3ccc(OCc4ccccc4)cc3O2)CC1 [Example 46, ((R)-7-Benzyloxy-2,3-dihydro-benzo[1,4]dioxin-2-ylmethyl)-(1-methyl-piperidin-4-ylmethyl)-amine] | 2 µM | 75 Response Units | 16 µM
COc1ccc(COc2ccc3c(c2)O[C@H](CNC(=O)c2ccc(CN4CCN(C)CC4)o2)CO3)cc1 [Example 22, 5-(4-Methyl-piperazin-1-ylmethyl)-furan-2-carboxylic acid [(R)-7-(4-methoxy-benzyloxy)-2,3-dihydro-benzo[1,4]dioxin-2-ylmethyl]-amide] | 12 µM | 96 Response Units | 46 µM
Cc1ccc(COc2ccc3c(c2)O[C@H](CNC(=O)C2CCN(C)CC2)CO3)cc1 [Example 29, 1-Methyl-piperidine-4-carboxylic acid [(R)-7-(4-methyl-benzyloxy)-2,3-dihydro-benzo[1,4]dioxin-2-ylmethyl]-amide] | 6.8 µM | 37 Response Units | 12.5 µM
CN(C)CC(=O)N[C@H]1CC[C@@H](N(Cc2ccn[nH]2)C[C@@H]2COc3ccc(OCc4ccccc4)cc3O2)CC1 [Example 51, N-{4-[((R)-7-Benzyloxy-2,3-dihydro-benzo[1,4]dioxin-2-ylmethyl)-(2H-pyrazol-3-ylmethyl)-amino]-cyclohexyl}-2-dimethylamino-acetamide] | 7.3 µM | 166 Response Units | 14 µM
Cc1ccccc1COc1ccc2c(c1)O[C@H](CNC(=O)C1CCN(C)CC1)CO2 [Example 32, 1-Methyl-piperidine-4-carboxylic acid [(R)-7-(2-methyl-benzyloxy)-2,3-dihydro-benzo[1,4]dioxin-2-ylmethyl]-amide] | 15.9 µM | 37 Response Units | 26.2 µM
CN1CCN(Cc2cccc(CNC(=O)C3COc4ccc(OCc5ccccc5)cc4O3)c2)CC1 (stereo not drawn) [Example 62, 7-Benzyloxy-2,3-dihydro-benzo[1,4]dioxine-2-carboxylic acid 3-(4-methyl-piperazin-1-ylmethyl)-benzylamide] | 7 µM | 93 Response Units | 42 µM
O=C(c1ncco1)N(CC1CCN(Cc2ccccc2)CC1)C[C@@H]1COc2ccc(OCc3ccccc3)cc2O1 [Example 42, Oxazole-2-carboxylic acid ((R)-7-benzyloxy-2,3-dihydro-benzo[1,4]dioxin-2-ylmethyl)-(1-benzyl-piperidin-4-ylmethyl)-amide] | 3 µM | 93 Response Units | 29 µM
O=C(NC[C@@H]1COc2ccc(OCc3ccccc3)cc2O1)c1ncco1 [Example 3, Oxazole-2-carboxylic acid ((R)-7-benzyloxy-2,3-dihydro-benzo[1,4]dioxin-2-ylmethyl)-amide] | 20 µM | 12 Response Units | > 100 µM
CN1CCC(C(=O)NC[C@@H]2COc3ccc(OCc4cccc(Cl)c4)cc3O2)CC1 [Example 30, 1-Methyl-piperidine-4-carboxylic acid [(R)-7-(3-chloro-benzyloxy)-2,3-dihydro-benzo[1,4]dioxin-2-ylmethyl]-amide] | 3.9 µM | 64 Response Units | 16.2 µM
CC(C)(C)OC(=O)NCc1ccc(CN(C[C@@H]2COc3ccc(OCc4ccccc4)cc3O2)C(=O)c2ncco2)cc1 [Example 41, (4-{[((R)-7-Benzyloxy-2,3-dihydro-benzo[1,4]dioxin-2-ylmethyl)-(oxazole-2-carbonyl)-amino]-methyl}-benzyl)-carbamic acid tert-butyl ester] | 16 µM | 7 Response Units | 74 µM
CN1CCC2(CC1)NC(=O)N(C[C@@H]1COc3ccc(OCc4ccccc4)cc3O1)C2=O [Example 77, 3-((R)-7-Benzyloxy-2,3-dihydro-benzo[1,4]dioxin-2-ylmethyl)-8-methyl-1,3,8-triaza-spiro[4.5]decane-2,4-dione] | 4 µM | 49 Response Units | 59 µM
O=C1CN(C2CCNCC2)C(=O)N1C[C@@H]1COc2ccc(OCc3ccccc3)cc2O1 [Example 79, 3-((R)-7-Benzyloxy-2,3-dihydro-benzo[1,4]dioxin-2-ylmethyl)-1-piperidin-4-yl-imidazolidine-2,4-dione] | 9 µM | 72 Response Units | 50 µM
CN1CCN(c2cccc(CNC[C@@H]3COc4ccc(OCc5ccccc5)cc4O3)c2)CC1 [Example 53, ((R)-7-Benzyloxy-2,3-dihydro-benzo[1,4]dioxin-2-ylmethyl)-[3-(4-methyl-piperazin-1-yl)-benzyl]-amine] | 5 µM | – | 8 µM
c1ccc(COc2ccc3c(c2)O[C@H](CNCC2CCCNC2)CO3)cc1 (stereo partly drawn) [Example 58, ((R)-7-Benzyloxy-2,3-dihydro-benzo[1,4]dioxin-2-ylmethyl)-piperidin-3-ylmethyl-amine] | 13.8 µM | – | 14.7 µM
c1ccc(COc2ccc3c(c2)O[C@H](CNCC2CCOCC2)CO3)cc1 [Example 33, ((R)-7-Benzyloxy-2,3-dihydro-benzo[1,4]dioxin-2-ylmethyl)-(tetrahydro-pyran-4-ylmethyl)-amine] | 18 µM | – | > 100 µM
CN1CCN(Cc2cccc(C(=O)NC[C@@H]3COc4ccc(OCc5ccccc5)cc4O3)c2)CC1 [Example 7, N-((R)-7-Benzyloxy-2,3-dihydro-benzo[1,4]dioxin-2-ylmethyl)-3-(4-methyl-piperazin-1-ylmethyl)-benzamide] | 10.5 µM | – | 19.2 µM
O=C(NCc1cn[nH]c1)C1COc2ccc(OCc3ccccc3)cc2O1 (stereo not drawn) [Example 73, 7-Benzyloxy-2,3-dihydro-benzo[1,4]dioxine-2-carboxylic acid (1H-pyrazol-4-ylmethyl)-amide] | – | 33 Response Units | –
NC(=O)CN1CCC(C(=O)NC[C@@H]2COc3ccc(OCc4ccccc4)cc3O2)CC1 [Example 14, 1-Carbamoylmethyl-piperidine-4-carboxylic acid ((R)-7-benzyloxy-2,3-dihydro-benzo[1,4]dioxin-2-ylmethyl)-amide] | – | 24 Response Units | –
O=C(C1COc2ccc(OCc3ccccc3)cc2O1)N1CCN(CC2CCOCC2)CC1 (stereo not drawn) [Example 64, (7-Benzyloxy-2,3-dihydro-benzo[1,4]dioxin-2-yl)-[4-(tetrahydro-pyran-4-ylmethyl)-piperazin-1-yl]-methanone] | – | 36 Response Units | –
Cc1n[nH]c(C)c1CC(=O)NC[C@@H]1COc2ccc(OCc3ccccc3)cc2O1 [Example 12, N-((R)-7-Benzyloxy-2,3-dihydro-benzo[1,4]dioxin-2-ylmethyl)-2-(3,5-dimethyl-1H-pyrazol-4-yl)-acetamide] | – | 53 Response Units | –
